Experimental data from US11319324B2, “Pyrazolo-pyrrolo-pyrimidine-dione derivatives as P2X3 inhibitors” (Bayer Aktiengesellschaft, priority 2017, dated 2022).

What was measured:
Type in all cases: cell-based
human P2X2/3 receptors = target: T1, human P2X2/3 receptors (Homo sapiens, UniProt P56373+Q9UBL9); assay: Intracellular calcium measurement, antagonist activity at human P2X2/3 receptors (hP2X23 1321N1), Fluo8; details: for IC50: column 4); 1321N1 cells, human P2X2/3, Fluo8, agonist ATP at EC50; read-out: 4) hP2X2/3 IC50 [nM] (1321N1); for hP2X23/hP2X3* Selectivity (1321N1): ratio of column 4) hP2X2/3 to column 3) hP2X3, 1321N1
T1 construct: expressed in transfected cells; host or cells: human astrocytoma 1321N1 (1312N1 [sic])
T1 sequence (P56373 1-397): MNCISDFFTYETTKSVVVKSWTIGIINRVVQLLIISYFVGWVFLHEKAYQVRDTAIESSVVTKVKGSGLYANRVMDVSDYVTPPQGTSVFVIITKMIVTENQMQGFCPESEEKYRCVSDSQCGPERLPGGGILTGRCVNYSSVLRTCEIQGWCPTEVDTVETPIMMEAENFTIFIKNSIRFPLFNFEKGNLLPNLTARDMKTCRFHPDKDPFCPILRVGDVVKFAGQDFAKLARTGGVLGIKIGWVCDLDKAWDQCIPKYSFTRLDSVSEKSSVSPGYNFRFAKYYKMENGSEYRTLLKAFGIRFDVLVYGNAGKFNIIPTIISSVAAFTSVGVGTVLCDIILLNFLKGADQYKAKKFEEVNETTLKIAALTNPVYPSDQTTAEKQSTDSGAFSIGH
T1 sequence (Q9UBL9 1-471): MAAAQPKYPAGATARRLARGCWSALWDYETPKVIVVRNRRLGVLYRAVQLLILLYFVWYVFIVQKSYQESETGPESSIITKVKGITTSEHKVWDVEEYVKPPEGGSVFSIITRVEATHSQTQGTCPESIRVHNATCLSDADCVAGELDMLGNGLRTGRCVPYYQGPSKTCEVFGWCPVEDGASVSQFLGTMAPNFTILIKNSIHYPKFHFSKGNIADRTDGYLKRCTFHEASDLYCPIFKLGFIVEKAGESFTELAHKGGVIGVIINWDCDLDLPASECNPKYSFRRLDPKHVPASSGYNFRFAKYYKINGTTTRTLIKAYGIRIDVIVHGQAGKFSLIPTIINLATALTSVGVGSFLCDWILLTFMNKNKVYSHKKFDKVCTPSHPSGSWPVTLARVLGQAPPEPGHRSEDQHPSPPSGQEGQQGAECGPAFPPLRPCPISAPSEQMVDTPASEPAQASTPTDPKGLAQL
Summary of the method: (§1)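 Inhibition of ATP-triggered Ca2+ transients is measured in 1321N1 cells expressing P2X3 homotrimers or P2X2/3 heterotrimers.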

human P2X3 receptor [1] = target: T2, human P2X3 receptor (Homo sapiens, UniProt P56373); assay: Intracellular calcium measurement, antagonist activity at human P2X3 receptors (hP2X3 1321N1), Fluo8; set-up: expressed in transfected cells; host or cells: human astrocytoma 1321N1 (1312N1 [sic]); details: column 3); 1321N1 cells, human P2X3, Fluo8, agonist ATP at EC50
T2 sequence (P56373 1-397): T1 sequence (P56373 1-397)
Summary of the method: as §1

human P2X3 receptor [2] = target: T2, human P2X3 receptor; assay: Intracellular calcium measurement to assess antagonist activity at human P2X3 receptors (hP2X3 CHO), photina luminescence; set-up: expressed in transfected cells; host or cells: Chinese hamster ovary (CHO) cells; details: column 2), CHO cells, agonist α,β-methylene-ATP at EC50
Summary of the method: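 CHO cells stably expressing human P2X3 and mitochondrial photina, plated the day before at 30 °C, then loaded 3 h at 37 °C in 2 mM Ca-tyrode buffer with 5 μg/ml coelenterazine. Agonist-evoked calcium luminescence read immediately; inhibition seen as signal decrease.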

`CC(C)N1Cc2c(n(CC(=O)Nc3ccc(F)cn3)c3cc(C(=O)NC(C)(C)C)nn3c2=O)C1=O` [Example 186] was tested, and the IC50 (human P2X2/3 receptors) was over 32000 nM, the “hP2X23/hP2X3* Selectivity (1321N1)” value (human P2X2/3 receptors) was over 17 and the IC50 (human P2X3 receptor [1]) was 1850 nM. The IC50 (human P2X3 receptor [2]) was 124 nM.
In the case of `Cc1ccc(-c2cc3n(CC(=O)Nc4ccc(F)cn4)c4c(c(=O)n3n2)CN(C(C)C)C4=O)cn1` [Example 154], the IC50 (human P2X2/3 receptors) is reported as 765 nM, the “hP2X23/hP2X3* Selectivity (1321N1)” value (human P2X2/3 receptors) is reported as 96 and the IC50 (human P2X3 receptor [1]) is reported as 8 nM. For the same compound, the IC50 (human P2X3 receptor [2]) was 21 nM.
With `CCc1cc2n(CC(=O)Nc3ccc(F)cn3)c3c(c(=O)n2n1)CN(C[C@H]1CN(C(C)=O)CCO1)C3=O` [Example 267] the IC50 (human P2X2/3 receptors) was 8000 nM, the “hP2X23/hP2X3* Selectivity (1321N1)” value (human P2X2/3 receptors) was 25 and the IC50 (human P2X3 receptor [1]) was 325 nM. The IC50 (human P2X3 receptor [2]) was 557 nM.
`CC(C)N1Cc2c(n(CC(=O)Nc3ccc(F)cn3)c3cc(C4CCCCC4)nn3c2=O)C1=O` [Example 85] was tested, and the IC50 (human P2X2/3 receptors) was 1950 nM, the “hP2X23/hP2X3* Selectivity (1321N1)” value (human P2X2/3 receptors) was 328 and the IC50 (human P2X3 receptor [1]) was 6 nM. It also gave an IC50 (human P2X3 receptor [2]) of 4 nM.
`CC(=O)N1CCC(c2cc3n(CC(=O)Nc4ccc(F)cn4)c4c(c(=O)n3n2)CN(C(C)C)C4=O)CC1` [Example 263, 2-[2-(1-acetylpiperidin-4-yl)-5,8-dioxo-6-(propan-2-yl)-5,6,7,8-tetrahydro-4H-pyrazolo[1,5-a]pyrrolo[3,4-d]pyrimidin-4-yl]-N-(5-fluoropyridin-2-yl)acetamide] was tested, and the IC50 (human P2X2/3 receptors) was 4700 nM, the “hP2X23/hP2X3* Selectivity (1321N1)” value (human P2X2/3 receptors) was 191 and the IC50 (human P2X3 receptor [1]) was 25 nM. It also gave an IC50 (human P2X3 receptor [2]) of 35 nM.
With `CC(C)N1Cc2c(n(CC(=O)Nc3ccc(F)cn3)c3cc(C(=O)N4CCOCC4)nn3c2=O)C1=O` [Example 225, N-(5-fluoropyridin-2-yl)-2-[2-(morpholin-4-ylcarbonyl)-5,8-dioxo-6-(propan-2-yl)-5,6,7,8-tetrahydro-4H-pyrazolo[1,5-a]pyrrolo[3,4-d]pyrimidin-4-yl]acetamide] the IC50 (human P2X2/3 receptors) was over 32000 nM, the “hP2X23/hP2X3* Selectivity (1321N1)” value (human P2X2/3 receptors) was over 481 and the IC50 (human P2X3 receptor [1]) was 67 nM. The IC50 (human P2X3 receptor [2]) was 37 nM.
In the case of `Cc1ccc(NC(=O)Cn2c3c(c(=O)n4nc(C5CCOCC5)cc24)CN(C(C)C)C3=O)nc1` [Example 59], the IC50 (human P2X2/3 receptors) is reported as 13000 nM, the “hP2X23/hP2X3* Selectivity (1321N1)” value (human P2X2/3 receptors) is reported as 90 and the IC50 (human P2X3 receptor [1]) is reported as 145 nM. The IC50 (human P2X3 receptor [2]) was 83 nM.
For `CCc1cc2n(CC(=O)Nc3ccc(Br)cn3)c3c(c(=O)n2n1)CN(C(C)C)C3=O` [Example 67], the IC50 (human P2X2/3 receptors) was 6350 nM, the “hP2X23/hP2X3* Selectivity (1321N1)” value (human P2X2/3 receptors) was 29 and the IC50 (human P2X3 receptor [1]) was 217 nM. The IC50 (human P2X3 receptor [2]) was 185 nM.
`CCc1cc2n(CC(=O)Nc3ccc(F)cn3)c3c(c(=O)n2n1)CN(C1CCOC1)C3=O` (racemic) [Example 71, 2-{2-ethyl-5,8-dioxo-6-[(±)-tetrahydrofuran-3-yl]-5,6,7,8-tetrahydro-4H-pyrazolo[1,5-a]pyrrolo[3,4-d]pyrimidin-4-yl}-N-(5-fluoropyridin-2-yl)acetamide] was tested, and the IC50 (human P2X2/3 receptors) was over 23000 nM, the “hP2X23/hP2X3* Selectivity (1321N1)” value (human P2X2/3 receptors) was over 184 and the IC50 (human P2X3 receptor [1]) was 125 nM. For the same compound, the IC50 (human P2X3 receptor [2]) was 111 nM.
`COC[C@H](C)N1Cc2c(n(CC(=O)Nc3ccc(F)cn3)c3cc(C(=O)N4CCC4)nn3c2=O)C1=O` [Example 194] was tested, and the IC50 (human P2X2/3 receptors) was 3200 nM, the “hP2X23/hP2X3* Selectivity (1321N1)” value (human P2X2/3 receptors) was 368 and the IC50 (human P2X3 receptor [1]) was 9 nM. For the same compound, the IC50 (human P2X3 receptor [2]) was 18 nM.
`CC(C)N1Cc2c(n(CC(=O)Nc3ccc(F)cn3)c3cc(Br)nn3c2=O)C1=O` [Example 75, 2-[2-bromo-5,8-dioxo-6-(propan-2-yl)-5,6,7,8-tetrahydro-4H-pyrazolo[1,5-a]pyrrolo[3,4-d]pyrimidin-4-yl]-N-(5-fluoropyridin-2-yl)acetamide] was tested, and the IC50 (human P2X2/3 receptors) was 4400 nM, the “hP2X23/hP2X3* Selectivity (1321N1)” value (human P2X2/3 receptors) was 50 and the IC50 (human P2X3 receptor [1]) was 89 nM. The IC50 (human P2X3 receptor [2]) was 29 nM.
For `CC(C)N1Cc2c(n(CC(=O)Nc3ccc(F)cn3)c3cc(C(=O)NCC4CC4)nn3c2=O)C1=O` [Example 187], the IC50 (human P2X2/3 receptors) was 2300 nM, the “hP2X23/hP2X3* Selectivity (1321N1)” value (human P2X2/3 receptors) was 112 and the IC50 (human P2X3 receptor [1]) was 21 nM. For the same compound, the IC50 (human P2X3 receptor [2]) was 21 nM.
In the case of `CCc1cc2n(CC(=O)Nc3ccc(F)cn3)c3c(c(=O)n2n1)CN(C[C@H]1CN(C2CC2)CCO1)C3=O` [Example 258], the IC50 (human P2X2/3 receptors) is reported as 1080 nM, the “hP2X23/hP2X3* Selectivity (1321N1)” value (human P2X2/3 receptors) is reported as 21 and the IC50 (human P2X3 receptor [1]) is reported as 52 nM. The IC50 (human P2X3 receptor [2]) was 66 nM.
